Results on 4 compounds are retold here after US9499551B2, “Substituted pyrrolo[2,3-b]pyridines for treating cancer or inflammatory diseases” (Confluence Life Sciences, Inc., priority 2014, dated 2016).

Experiment [1] relates to IL-6 Production in Human Peripheral Blood Mononuclear Cells (PBMC). Put plainly: LPS stimulated IL-6 production in PBMC cells. It counts as cell-based. The conditions noted are these: read-out: IL-6 Production Inhibition IC50.
Experiment [2] has as its target T1, TAK1-TAB1 (Homo sapiens, UniProt O43318).
T1 sequence (O43318 with tags, fused parts or gaps limits assumed): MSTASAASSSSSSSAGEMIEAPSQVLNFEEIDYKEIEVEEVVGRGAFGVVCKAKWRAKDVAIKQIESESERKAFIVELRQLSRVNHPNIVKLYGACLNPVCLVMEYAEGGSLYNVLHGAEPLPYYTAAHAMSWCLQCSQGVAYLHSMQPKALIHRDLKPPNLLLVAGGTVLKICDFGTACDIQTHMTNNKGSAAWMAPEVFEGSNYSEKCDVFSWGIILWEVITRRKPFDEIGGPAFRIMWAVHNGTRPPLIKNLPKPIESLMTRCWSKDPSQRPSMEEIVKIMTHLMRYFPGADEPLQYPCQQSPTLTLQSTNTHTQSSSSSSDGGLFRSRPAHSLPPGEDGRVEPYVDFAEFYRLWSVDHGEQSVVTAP
As to the kind of experiment: TAK1-TAB1 binding inhibitory potency (LanthaScreen competitive binding assay, kinase tracer-236). To be noted: 10 nM TAK1-TAB1, 100 nM kinase tracer-236; read-out: TAK1-Tab Inhibition IC50. The gist of the method: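 Compounds were tested for TAK1-TAB1 binding in a 384-well LanthaScreen competitive FRET assay. TAK1-TAB1 (10 nM) and Eu-anti-his antibody (2 nM) were preincubated with compound for two hours before adding 100 nM Alexa Fluor 647 kinase tracer-236. The buffer was 20 mM HEPES pH 7.5, 10 mM MgCl2, 0.01% BSA, 0.0005% Tween-20 and 2% DMSO. IC50 came from 4-parameter logistic fits of emission ratio over an 11-point series from 20 μM to 0.34 nM.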
Background: TR-FRET usually uses a lanthanide donor and a delayed reading to cut background.

The IC50 is the point on the concentration scale where inhibition reaches its midpoint. On to `CN1CCC(NC(=O)c2ccc(-c3cnc4[nH]cc(/C=C/C(N)=O)c4c3)nc2)CC1` [Example 296, (E)-6-(3-(3-amino-3-oxoprop-1-en-1-yl)-1H-pyrrolo[2,3-b]pyridin-5-yl)-N-(1-methylpiperidin-4-yl)nicotinamide], for which the IC50 is over 1 µM in experiment [1] and at most 1 µM in experiment [2].

Regarding `NC(=O)/C=C/c1c[nH]c2ncc(N3CCN(c4ccccc4)CC3)cc12` [Example 297, (E)-3-(5-(4-phenylpiperazin-1-yl)-1H-pyrrolo[2,3-b]pyridin-3-yl)acrylamide], the IC50 in experiment [1] and in experiment [2] was at most 1 µM each time.

Turning to `NC(=O)/C=C/c1c[nH]c2ncc(N3CC(NC(=O)c4ccccc4)C3)cc12` [Example 298, (E)-N-(1-(3-(3-amino-3-oxoprop-1-en-1-yl)-1H-pyrrolo[2,3-b]pyridin-5-yl)azetidin-3-yl)benzamide], the IC50 in experiment [1] and in experiment [2] was at most 1 µM each time.

In the case of `CC(O)c1cncc(-c2cnc3[nH]cc(/C=C/C(N)=O)c3c2)c1` (centres unmarked) [Example 299, (E)-3-(5-(5-(1-hydroxyethyl)pyridin-3-yl)-1H-pyrrolo[2,3-b]pyridin-3-yl)acrylamide], the figures for the IC50 in experiment [1] and in experiment [2] were over 1 µM and at most 1 µM, respectively.
